Test results taken from patent US8088422B2, “Purified pyrroloquinoline quinone fortified food” (Shanghai Medical Life Science Research Center, Ltd., Co., priority 2008, dated 2012).
Values after ≈ are worked out from the molar mass of the structure shown.

Tests used:
Top10 E. coli = assay: OD600 measurement of bacterial growth in LB media with PQQ, Top10 E. coli; assay type: cell-based; conditions: 37 degree C
Procedure: (§1) In one experiment, Top 10 E. coli and Ampicillin resistant (AmpR) E. coli are selected as bacterial samples. These bacterial samples are cultured separately in LB media in a number of tubes with various purified PQQ concentrations. LB media is prepared as following: Ten gram Bacto-tryptone, 5 g yeast extract and 10 g NaCl are added to 800 ml distilled H2O. The pH of the solution is adjusted to 7.5 with NaOH, and the final volume is adjusted to 1 L with distilled H2O. The LB media is autoclaved and filtered to be sterilized. The PQQ concentration range is prepared between 0 to 100 mg/Liter of LB media in the number of the tubes. The bacterial samples are inoculated into the tubes to the amount of 1×10^5/tube, incubated in 37 degree C. on shaking bench for designated time according to the following experiment designs. It is known that Ampicillin has no effect to the growth of Ampicillin resistant E. coli but can inhibit other bacteria growth. Therefore, the data from the Ampicillin experiment are focused on AmpR E. coli growth. While in the case of Top10 E. coli, other types of bacteria may grow in the culture as well.
(§2) Table 1 and FIG. 1 show OD600 value of samples from Top10 E. coli and Ampicillin resistant E. coli cultured at 6, 8, and 9.5 hours. OD600 is a measurement of the optical density at 600 nm wavelength light of a liquid media. The optical density is related to the amount of particle scattering of light. In this case, a high optical density indicates a large number of bacteria in the cultural sample, and OD600 datas are used in this invention disclosure as indication of numbers of bacteria in the liquid media, which is a standard method to monitor microorganism growth. The OD600 of cultured microorganism in liquid media is measured by photometer, using blank media as blank reference. To convert OD600 to the number of microorganism such as E. coli in the culture media, the converting formula is 1 OD=3.8×10^8. OD600 is a well known technique of monitoring bacterial growth to those of skilled in the art and so is not discussed further here.

[1] = tested on: Ampicillin resistant (AmpR) E. coli; assay: OD600 measurement of bacterial growth in LB media with PQQ, Ampicillin resistant E. coli; assay type: cell-based; conditions: for OD600: AmpR, LB media, 37 degree C
Procedure: as §1, §2

[2] = tested on: bacteria in non-pasteurized cow milk; assay: OD600 of PQQ fortified non-pasteurized cow milk (FIG. 2); assay type: cell-based; conditions: PQQ 0, 0.1, 1, 10 mg/L, after 6 and 9 hour mixing at 37 degree C, then LB culture 24 hours
Procedure: In one embodiment of the present invention, the inhibition effect of purified PQQ to the growth of bacterial is utilized to preserve food products. […] The samples were prepared with purified PQQ concentration level of 0, 0.1, 1, and 10 mg/L. Next, the samples were shaken at 37 degree C. for 3, 6, and 9 hours, and then saved in a refrigerator under 4 degree C. On the next day, liquid culture media LB was added into the samples, followed by the samples cultured in shake flask for the next 24 hours and ready for OD600 test.
FIG. 2 presents the OD600 value as a function of purified PQQ concentration measured from the samples shake flask for 3, 6, and 9 hours.

[3] = Solubility of PQQ in water solution; assay type: physicochemical; conditions: 20 °C, aqueous buffer; 20-25 degree C., pH 7.0 water solution
Isoelectric point of PQQ = assay type: physicochemical
DNA = conditions: 10 μM PQQ (3.3 mg/L), dependent on presence of NADH and Cu (II); cited from earlier work

O=C(O)c1cc(C(=O)O)c2c(n1)C(=O)C(=O)c1cc(C(=O)O)[nH]c1-2 [PQQ, Pyrroloquinoline quinone]
OD600 (Top10 E. coli; PQQ 0.1 mg/L, 6 Hours): 0.303 | OD600 (Top10 E. coli; PQQ 0.1 mg/L, 8 Hours): 0.416 | OD600 (Top10 E. coli; PQQ 0.1 mg/L, 9.5 Hours): 0.451 | OD600 (Top10 E. coli; PQQ 1 mg/L, 6 Hours): 0.293 | OD600 (Top10 E. coli; PQQ 1 mg/L, 8 Hours): 0.445 | OD600 (Top10 E. coli; PQQ 1 mg/L, 9.5 Hours): 0.452 | OD600 (Top10 E. coli; PQQ 25 mg/L, 6 Hours): 0.251 | OD600 (Top10 E. coli; PQQ 25 mg/L, 8 Hours): 0.433 | OD600 (Top10 E. coli; PQQ 25 mg/L, 9.5 Hours): 0.472 | OD600 (Top10 E. coli; PQQ 50 mg/L, 6 Hours): 0.208 | OD600 (Top10 E. coli; PQQ 50 mg/L, 8 Hours): 0.413 | OD600 (Top10 E. coli; PQQ 50 mg/L, 9.5 Hours): 0.457 | OD600 (Top10 E. coli; PQQ 75 mg/L, 6 Hours): 0.165 | OD600 (Top10 E. coli; PQQ 75 mg/L, 8 Hours): 0.386 | OD600 (Top10 E. coli; PQQ 75 mg/L, 9.5 Hours): 0.446 | OD600 (Top10 E. coli; PQQ 100 mg/L, 6 Hours): 0.163 | OD600 (Top10 E. coli; PQQ 100 mg/L, 8 Hours): 0.378 | OD600 (Top10 E. coli; PQQ 100 mg/L, 9.5 Hours): 0.431 | number of E. coli in AmpR sample (general trend, FIG. 1 and table 1) ([1]; PQQ 0 to 100 mg/Liter of LB media, 6, 8, 9.5 hours): decreases as the concentration of purified PQQ increases | OD600 ([1]; PQQ 0.1 mg/L, 6 Hours): 0.143 | OD600 ([1]; PQQ 0.1 mg/L, 8 Hours): 0.331 | OD600 ([1]; PQQ 0.1 mg/L, 9.5 Hours): 0.401 | OD600 ([1]; PQQ 1 mg/L, 6 Hours): 0.145 | OD600 ([1]; PQQ 1 mg/L, 8 Hours): 0.335 | OD600 ([1]; PQQ 1 mg/L, 9.5 Hours): 0.408 | OD600 ([1]; PQQ 25 mg/L, 6 Hours): 0.087 | OD600 ([1]; PQQ 25 mg/L, 8 Hours): 0.268 | OD600 ([1]; PQQ 25 mg/L, 9.5 Hours): 0.356 | OD600 ([1]; PQQ 50 mg/L, 6 Hours): 0.052 | OD600 ([1]; PQQ 50 mg/L, 8 Hours): 0.169 | OD600 ([1]; PQQ 50 mg/L, 9.5 Hours): 0.298 | OD600 ([1]; PQQ 75 mg/L, 6 Hours): 0.04 | OD600 ([1]; PQQ 75 mg/L, 8 Hours): 0.122 | OD600 ([1]; PQQ 75 mg/L, 9.5 Hours): 0.239 | OD600 ([1]; PQQ 100 mg/L, 6 Hours): 0.03 | OD600 ([1]; PQQ 100 mg/L, 8 Hours): 0.088 | OD600 ([1]; PQQ 100 mg/L, 9.5 Hours): 0.192 | amount of bacteria (OD600, FIG. 2) [2]: the amount of bacteria decreases as the purified PQQ concentration increases | solubility [3]: 1000 to 2000 µg/mL (≈ 3.03 to 6.06 mM) | isoelectric point (Isoelectric point of PQQ): 2.75 pH | DNA cleavage (DNA): induce DNA cleavage at thymine and cytosine residue sites
